The source of these data is a melting point compilation (Tetko et al.; mined from patent text by program, amines drawn as free bases though some values may be those of a salt).

Some results are limits rather than exact numbers.

As usually defined, the melting point is the temperature, or range, at which the solid turns liquid. `O=S1(=O)N=C(NCCc2ccccc2)Nc2ccc(Cl)cc21` registered a melting point of 250 to 252 °C.

`Cc1cc(-c2ncn3c(C(F)(F)F)cc(-c4ccc(C(F)(F)F)c(C)c4)nc23)ccn1`: the melting point was 243 °C. `O=C1COc2ccc(CO)cc2N1` showed a melting point of 186 to 187 °C. In turn, `COC(=O)c1cc(C#N)ccc1Cl` came in with a melting point of 100 to 103 °C. `N#Cc1cccnc1N1CCN(CC(=O)Nc2cccc(Cl)c2)CC1` gave a melting point of 108 to 109 °C. With `Cc1cc(Cc2nnc(Nc3cc(Br)cc(C(F)(F)F)c3)c3ccccc23)ccn1` the figure was 122 to 123 °C; with `NC(=O)c1cccc(CN2C(=O)C3(COc4cc5c(cc43)OCCO5)c3ccccc32)c1` (configuration not stated), 130 to 135 °C. `CN1CCC(c2c[nH]c3ccc(NC(=O)c4ccc(F)cc4Cl)cc23)CC1` gave a melting point of 159 to 162 °C. `Cc1c(O)nc2sc(SCc3ccccc3)nn2c1=O`: the melting point was in the range of 247 to 250 °C. Consider `CC1(C)CC(=O)C(C(=O)Nc2cccc(C(F)(F)F)c2)C(=O)C1`, for which the melting point lay in the range of 116 to 117 °C. With `COc1ccc(S(=O)(=O)N2Cc3ccsc3C[C@@H]2C(=O)O)cc1` the figure was 110 °C; with `N#Cc1c2c(c3c(c1N1CCCC1)Cc1ccccc1-3)Cc1ccccc1-2`, 158 to 160 °C; with `COC(=O)c1scc(-c2ccccc2)c1S(N)(=O)=O`, 172 to 175 °C. The compound `CCN(CC)CCOc1ccc(Nc2nccc(-c3ccncc3)n2)cc1` registered a melting point of 85 to 87 °C. The compound `CCCCCC(Oc1ccc(C2=CCCCC2)cc1)C(=O)O` (configuration not stated) displayed a melting point of 78 to 80 °C. The same measure for `CC(C)(C)CC(=O)Nc1ccc2ncnc(N)c2c1`: 273 to 274 °C.

On to `CCCCOc1ccccc1-c1ncc(C(=O)O)c(=O)[nH]1`, for which the melting point lay in the range of 163 to 165 °C.

The compound `CCCCOC(=O)C=Cc1c(-c2ccccc2)nn2ccccc12` returned a melting point of 80 to 82 °C.

In turn, `CCCc1c(OCCCCCCc2ccc(CCCCC(=O)O)cc2CCC(=O)O)ccc2c1OCCC2=O` yielded a melting point of 108 to 109 °C. With `CC(C)Cc1nn(C)c(=O)c2c(S(=O)(=O)CCCO)c(Cc3ccccc3)sc12` the figure was 105 to 107 °C; with `CC1(C)CC(=O)C1(Br)CC(Br)(Br)Br` (configuration not stated), 61 to 63 °C.

For `COc1ccccc1CNC(=O)c1c(-c2ccc(C)cc2)c2cccnc2c(=O)n1CCCCO`, the melting point lay within 205 to 206 °C.

`CC(C)c1nc(C(C)C)c(CN2CCN(c3ccccc3)CC2)c(-c2ccc(F)cc2)c1CO`: the melting point was 111 to 113 °C. Regarding `CCNc1nc(SC)ncc1C=O`, the melting point lay within 58 to 61 °C. In turn, `CCOC(=O)c1c(-c2ccc(F)cc2)nc(-c2ccccc2)nc1C(C)C` returned a melting point of 97 to 99 °C.

`COC1C(Oc2ccc(N)cc2)OC(CO)C(OC2OC(CO)C(O)C(OC)C2O)C1O` (configuration not stated) gave a melting point of 105 °C.

Consider `CCOC(=O)c1oc2cc(O)ccc2c(=O)c1C(N)=O`, for which the melting point is > 320 °C. Regarding `CN(C)NC(=O)c1sc(Nc2ccccc2)c2c1CCc1cnoc1-2`, the melting point lay within 179 to 180 °C. With `O=C(C(Cl)Cl)N1CCCCCC1` the figure was 56 °C; with `O=C1c2ccc3c4cccc5cccc(c6ccc(c2c36)C(=O)N1CCO)c54`, > 260 °C; with `CNC(=NC#N)NCCCn1cc(C2=C(c3cn(C)c4ccccc34)C(=O)NC2=O)c2ccccc21`, 190 to 193 °C. With `COC(=O)C1=C(C)Nc2nc[nH]c(=O)c2C1c1cccc([N+](=O)[O-])c1` (configuration not stated) the figure was 289 to 290 °C; with `CCOC(=O)CCc1cc(C(=O)c2cccc(C(=O)OCC)c2)ccc1/C=C\CCCCO`, 48 to 50 °C. In turn, `CC(C)CC(=O)N[C@H]1CC[C@H](CCN2CCN(c3nccc4c3CCO4)CC2)CC1` yielded a melting point of 202 °C. As to `O=c1c2ccc(Cl)cc2[nH]c2c(O)nn(-c3ccc(O)cc3)c(=O)c12`, the melting point was 316 to 318 °C. With `N#Cc1cccc(C(=O)c2ccc(C3CCCCC3)cc2)c1` the figure was 73 to 74 °C. Compound `COc1c(F)cc(-c2cncc(OC3SCC(OC(C)=O)C(OC(C)=O)C3OC(C)=O)c2)cc1F` (configuration not stated) gave a melting point of 203 °C.

In the case of `CCOC(=O)C1(Cc2ccc(OC)c(OC)c2)C(=O)NCC1c1ccc2c(c1)OCO2` (configuration not stated), the melting point was 167 to 168 °C. `CC(F)(F)c1cccc(Oc2ccc(C3CCCN4CCS(=O)(=O)N=C34)cc2)c1` (configuration not stated) returned a melting point of 117 to 118 °C.

In turn, `COc1cccc2c1CCC1CCC(=O)N(C)CC21` (configuration not stated) gave a melting point of 123 to 124 °C. `CCSc1ccc(Cl)nc1C#N` registered a melting point of 79 to 81 °C. For the compound `O=Cc1cc(Br)c(OCCBr)c(Br)c1`, the melting point lay in the range of 84 to 85 °C. The same measure for `CCN(CC)C(=O)CCc1nc(-c2cccc(C(F)(F)F)c2)nc2ccccc12`: 115 °C. With `Oc1cccc(NCCc2ccccc2)n1` the figure was 97 to 99 °C; with `O=C1C=C(c2ccccc2C(F)(F)F)CO1`, 49 to 50 °C. The compound `Cc1cc(C)c2ncc(NC(=O)c3cc(C)c(O)c(C)c3C)c(-c3ccccc3Cl)c2c1` displayed a melting point of 261 to 264 °C. In turn, `COC(=O)CC(=O)CS(=O)(=O)C(c1ccc(Cl)cc1)c1ccc(Cl)cc1` registered a melting point of 76 to 78 °C.

Turning to `CC(Cl)(Cl)C(NC(=O)c1ccc(Cl)cc1)Nc1c(Nc2cccnc2)c(=O)c1=O` (configuration not stated), the melting point lay within 201 to 202 °C. With `COc1ccc2cc(C(=O)CCC(=O)c3ccccc3)ccc2c1` the figure was 164 °C; with `CCON=Cc1c(S(C)(=O)=O)ccc(C(=O)C2C(=O)CC(C)(C)CC2=O)c1Cl`, 156 to 157 °C. Consider `CC(C)CC(C)(C(=O)NC1CCCCCCCCCCNC1=O)c1ccccc1S` (configuration not stated), for which the melting point fell in the range of 166 to 171 °C. For `COc1nc(N2CCN(C(=O)c3ccccc3C(F)(F)F)CC2)ccc1C(=O)NCCC1CC1`, the melting point lay within 49 to 51 °C. `O=C(O)c1oc(-c2ccccc2Cl)cc(=O)c1Br` gave a melting point of 205 to 207 °C.

In the case of `Cc1cccc2c1n(CCS(C)(=O)=O)c(=O)n2C(=O)N[C@H](C(=O)N(C)C)C(C)(C)C`, the melting point amounted to 191 °C. `CCCCCCCCCCCCCCCCS[C@H]1CCCO[C@H]1CO` (relative stereo) gave a melting point of 52 to 53 °C. `CCC(=Nc1ccc2c(c1)C(=O)c1ccc(N=C(CC)N3CCOCC3)cc1C2=O)N1CCOCC1` gave a melting point of 220 to 223 °C. The same measure for `C=C1COc2c(N3CCN(C)CC3)c(F)cc3c(=O)c(C(=O)O)cn1c23`: 200 to 201 °C; for `CNc1nc(Nc2ccc(Cl)cc2F)ncc1N1CCNC1=O`: 249 °C; for `CN(c1cc(OCCCS(C)(=O)=O)cc2cc(C3=NCC(CN4CCOCC4)S3)[nH]c12)S(=O)(=O)c1ccccn1` (configuration not stated): 168 to 169 °C. In turn, `O=[N+]([O-])c1ccc2c(c1)SC(c1ccc(Cl)cc1Cl)O2` (configuration not stated) showed a melting point of 106 to 108 °C.

`O=C(c1cc(Cl)c(Cl)cc1NS(=O)(=O)c1cccc2nsnc12)N1CCCCC1` returned a melting point of 178 to 179 °C. With `Cc1ccc(S(=O)(=O)N2CCCC(S(=O)(=O)c3cccc(Cl)c3)C2)cc1` (configuration not stated), the melting point fell in the range of 282 to 284 °C. `COCc1cc2c(-c3ccc(C(F)(F)F)n(C)c3=O)c(F)cc(Cl)c2o1` gave a melting point of 136 to 137 °C. In turn, `Cc1cccc(C(=O)Nc2ccc3c(c2)CC(N(C)Cc2ccccn2)C3)c1-c1ccc(C(F)(F)F)cc1` (configuration not stated) gave a melting point of 105 to 115 °C. With `OCCOCc1nnc2n1-c1ccc(Cl)cc1C(c1ccccc1)=NC2` the figure was 162 to 164 °C. `COC1(c2cc(F)cc(S(=O)(=O)c3ccc4c(c3)CC/C4=N\O)c2)CCOCC1` came in with a melting point of 225 to 226 °C. With `COc1ccc(S(=O)(=O)C(CC=C(C)C)(Cc2ccc(OCCN3CCOCC3)cc2)C(=O)NO)cc1` (configuration not stated), the melting point was determined as 92 °C. On to `CCCN(CCC)C1Cc2c(C(C)=O)ccc3c2C(CN3)C1` (single isomer, unassigned; (+)), for which the melting point lay in the range of 76 to 77 °C. `COc1cc(CN/C=C2\C(=O)NC(=O)c3ccc(-c4ccc(Cl)cc4)cc32)cc(O)c1OC` showed a melting point of 240 to 241 °C.

In turn, `CCOC(=O)CCC(=O)OCC(F)(F)Cn1nc(C)c(-c2ccc3c(c2)NC(=O)CO3)c1-c1ccc(F)cc1` had a melting point of 100 °C.

As to `COC(=O)C1=Cc2cc(Br)ccc2N2CCCC2C1` (configuration not stated), the melting point lay within 136 to 139 °C. As for `N#Cc1cnn2c1N(C(=O)CN1CCN(C(=O)Nc3cccc(Cl)c3)CC1)CC=C2c1cccc(C(F)(F)F)c1`, the melting point fell in the range of 182 to 185 °C. Consider `C=C1N(c2cccc3ccccc23)C(=O)OC12CCN(CCC=C(c1ccc(F)cc1)c1ccc(F)cc1)CC2`, for which the melting point fell in the range of 99 to 101 °C. With `COc1ccc(CC(N)=O)cc1OC`, the melting point is 142 to 144 °C. In the case of `CCSc1ccc(C(=O)NCc2ccc3c(c2)C(=O)N(C2CCC(=O)NC2=O)C3=O)nn1` (configuration not stated), the melting point fell in the range of 205 to 207 °C. For `CC(=O)OC1CSC(Oc2ccc(-c3cccnc3)cc2)C(OC(C)=O)C1OC(C)=O` (configuration not stated), the melting point was 150 °C.

With `CCN(CC)c1ccc2c(c1)CC(=O)N2`, the melting point lay within 122 to 124 °C. The same measure for `CCCCCCCCOc1cc(-c2ccccc2)c(OCC(=O)O)c(-c2ccccc2)c1`: 82 to 84 °C; for `CC1CC2C3CCC4=CC(=O)C=CC4(C)C3C(=O)CC2(C)C1C(=O)COC(=O)C(C)(C)C` (configuration not stated): 201 to 202 °C. With `CCCCS(=O)(=O)Oc1c(C(=O)OC(C)C)sc(C(=O)OC(C)C)c1C` the figure was 59 to 61 °C; with `C=CCc1ccc2oc(C(=O)c3ccc(OC)cc3)c(C)c2c1O`, 48 to 50 °C; with `Cc1nn(C)c(C)c1C(=O)NC1CCCCC1`, 185 to 186 °C. With `Cc1ccc([N+](=O)[O-])cc1Nc1cc(-c2cccnc2)ccn1` the figure was 170 to 173 °C; with `CSCc1cc(=O)c2ccc(OCc3ccccc3)c(C)c2o1`, 110 to 114 °C; with `CCOC(=O)c1cc2ccc(C(C)C)nc2s1`, 73 to 74 °C. `CC(=O)N1CCc2cc(C(O)CN(Cc3ccccc3)Cc3ccccc3)ccc21` (configuration not stated): the melting point amounted to 116 °C. With `O=c1c2cc(SC(F)(F)F)ccc2ccn2cccc12` the figure was 155 to 159 °C.
